Source: publication PMC7400577 (Scientific Reports, 2020)
Positions count from the first letter of the chain named. Where “and” joins values, the source holds several entries; their conditions need not be identical. Identical values can stand only once. Like-named read-outs stand apart in the source and are kept apart here.

Columns and labels:
hBGT1 = biological target: T1, hBGT1 (Homo sapiens, UniProt P48065); assay type: cell-based; conditions: for IC50: 30 nM [3H]GABA, 3 min, CHO Flp-In cells stably expressing hBGT1; for decrease of hBGT1 inhibitory potency compared to ATPCA: [3H]GABA uptake; for decrease of hBGT1 inhibitory potency compared to ATPCA / subtype-selectivity for hBGT1 over the other hGATs: CHO Flp-In cells; for subtype-selectivity for hBGT1 over the other hGATs: estimated from [3H]GABA uptake IC50 values
T1 construct: expressed in transfected cells
T1 sequence (P48065 1-614): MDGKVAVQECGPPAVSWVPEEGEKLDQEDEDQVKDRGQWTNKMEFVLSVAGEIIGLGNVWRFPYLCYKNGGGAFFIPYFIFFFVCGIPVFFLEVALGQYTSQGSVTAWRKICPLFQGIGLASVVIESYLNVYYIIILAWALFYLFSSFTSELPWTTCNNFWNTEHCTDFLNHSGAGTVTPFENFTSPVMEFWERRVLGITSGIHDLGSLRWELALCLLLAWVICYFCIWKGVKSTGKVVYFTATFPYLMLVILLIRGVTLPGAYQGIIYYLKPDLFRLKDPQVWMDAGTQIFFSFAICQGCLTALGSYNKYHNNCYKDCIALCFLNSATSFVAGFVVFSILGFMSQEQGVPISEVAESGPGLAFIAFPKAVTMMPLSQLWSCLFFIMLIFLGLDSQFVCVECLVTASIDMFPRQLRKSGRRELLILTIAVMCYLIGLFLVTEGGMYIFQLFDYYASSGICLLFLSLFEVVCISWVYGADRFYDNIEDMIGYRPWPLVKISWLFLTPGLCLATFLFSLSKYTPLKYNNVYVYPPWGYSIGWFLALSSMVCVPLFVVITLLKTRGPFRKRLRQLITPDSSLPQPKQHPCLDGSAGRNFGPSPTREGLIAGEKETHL
Method: CHO Flp-In and tsA201 cells were cultured at 37 °C in a humidified atmosphere of […] and 5% CO2. As previously described[38],[63], CHO Flp-In cells stably expressing the hGATs were cultured in Ham’s F12 Nutrient Mix supplemented with 10% FBS, 1% P/S and plasmocin (5 µg/mL) under the selection pressure of hygromycin B (200 µg/mL). DMEM with GlutaMAX-I supplemented with 10% FBS and 1% P/S was used as growth medium for the tsA201 cells, which were transfected with DNA constructs using PolyFect according to the manufacturer’s specifications (Qiagen, West Sussex, UK), but with half of the recommended reagent volumes.
Uptake assays were performed in PDL-coated white 96-well polystyrene cell culture microplates (PerkinElmer, Boston, MA, USA) as previously described[38],[63]. […] Assay buffer was HBSS supplemented with 20 mM HEPES, 1 mM CaCl2 and 1 mM MgCl2, pH 7.4. […] After termination, scintillation liquid (MicroScint-20, PerkinElmer) was added and the radioactivity measured in a TopCount NXT Microplate Scintillation Counter (PerkinElmer).
Data analysis and statistical evaluation were performed in GraphPad Prism 7.02 (GraphPad Software, San Diego, CA, USA). Concentration-uptake inhibition curves, generated from the radioligand-based uptake assays, were fitted by non-linear regression, using the equation for sigmoidal concentration–response with variable slope: Y = Bottom + (Top–Bottom)/(1 + 10^((logIC50 − X) × HillSlope)), where Y is the response, X is the logarithm of the concentration, Top and Bottom are the plateaus in same units as Y, logIC50 is the concentration giving a response halfway between Bottom and Top, and the HillSlope is the steepness of the curve. For the substrate concentration–response curves generated from the FMP assay, the same equation was used but with logEC50 instead for logIC50. Unless otherwise stated, data are presented as means ± S.E.M. of at least three independent pooled experiments performed in triplicates.

hGAT3 L314Q = biological target: T2, hGAT3 L314Q (Homo sapiens, UniProt P48066, L314Q); test: [3H]GABA uptake inhibition at hGAT3 L314Q transiently expressed in tsA201 cells; assay type: cell-based; conditions: 30 nM [3H]GABA, transient expression
T2 construct: expressed in transfected cells; host or cells: tsA201 cells, transient (PolyFect), pcDNA5/FRT vector
T2 sequence (P48066 1-632 L314Q): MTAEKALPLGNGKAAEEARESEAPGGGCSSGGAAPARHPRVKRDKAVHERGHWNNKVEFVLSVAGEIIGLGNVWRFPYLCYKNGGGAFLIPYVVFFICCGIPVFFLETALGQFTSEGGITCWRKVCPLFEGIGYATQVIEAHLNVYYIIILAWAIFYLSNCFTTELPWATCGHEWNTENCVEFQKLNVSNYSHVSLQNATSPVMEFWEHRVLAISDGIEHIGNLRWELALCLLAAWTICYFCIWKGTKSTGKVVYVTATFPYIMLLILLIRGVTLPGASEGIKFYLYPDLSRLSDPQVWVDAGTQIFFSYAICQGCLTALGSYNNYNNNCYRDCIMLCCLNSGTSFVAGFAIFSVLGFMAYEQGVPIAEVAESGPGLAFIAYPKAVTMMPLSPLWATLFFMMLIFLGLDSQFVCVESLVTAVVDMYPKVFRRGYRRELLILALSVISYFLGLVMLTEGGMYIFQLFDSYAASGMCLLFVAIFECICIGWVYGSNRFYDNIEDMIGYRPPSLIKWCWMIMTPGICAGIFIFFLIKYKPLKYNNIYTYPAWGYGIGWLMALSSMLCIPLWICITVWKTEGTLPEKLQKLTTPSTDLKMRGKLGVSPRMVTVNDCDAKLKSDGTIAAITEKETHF

hBGT1 E52A = biological target: T3, hBGT1 E52A (Homo sapiens, UniProt P48065, E52A); test: cell-based; conditions: 30 nM [3H]GABA, tsA201 cells, transient expression
T3 sequence (P48065 1-614 E52A): T1 sequence (P48065 1-614) with E52A

[1] = read-out: pIC50 ± S.E.M. hBGT1 (converted)
[2] = read-out: pIC50 ± S.E.M. GAT3 L314Q (converted)

Compound | IC50 (hBGT1; read-out: IC50 hBGT1) | IC50 (hBGT1; [1]) | decrease of hBGT1 inhibitory potency compared to ATPCA (hBGT1) | subtype-selectivity for hBGT1 over the other hGATs (hBGT1) | IC50 (hGAT3 L314Q; read-out: IC50 GAT3 L314Q) | IC50 (hBGT1 E52A; IC50 BGT1 E52A) | IC50 (hBGT1 E52A; pIC50 ± S.E.M. BGT1 E52A) | IC50 (hGAT3 L314Q; [2])
NC1=NC=C(C(=O)O)CN1.O=C(O)C(F)(F)F [compound 11] | 48 µM | 46.8 µM | 19 fold | ≥ 21 times | > 1000 µM | 247 µM | 240 µM | 
NC1=NCC(C(=O)O)CC1 (stereo not drawn) [compound 2, 6-amino-2,3,4,5-tetrahydropyridine-3-carboxylic acid, reference compound] | < 100 µM | 12.9 µM | fivefold |  | 695 µM | 31 µM | 30.2 µM | 
NC1=NCC(C(=O)O)CN1 (stereo not drawn) [ATPCA, 2-amino-1,4,5,6-tetrahydropyrimidine-5-carboxylic acid, reference compound] |  |  |  |  | 66 µM | 4.4 µM |  | 58.9 µM
Cl.NC1=NCC(C(=O)O)CN1Cc1ccccc1 (stereo not drawn) [compound 4] | 163 µM |  | 20–65 fold |  | 500 µM | 90 µM | 87.1 µM | 490 µM
CCN1CC(C(=O)O)CN=C1N.Cl (stereo not drawn) [compound 3] | 86 µM |  | 20–65 fold and 34 fold | at least 12 times | > 1000 µM | 74 µM | 72.4 µM | 
C[C@@H]1N=C(N)NC[C@@H]1C(=O)O (single isomer, unassigned) [l-15a] | < 100 µM | 33.9 µM |  | ≥ 29 times | > 1000 µM |  | 37.2 µM | 
